These results are taken from US10413581B2, “Combination, composition, and method of administering the combination or composition to animals” (Phibro Animal Health Corporation, priority 2014, dated 2019).

Experiment [1] relates to E. tenella. In words: Example 8: lesion score and OPG, E. tenella. In kind it is in vivo, Cobb 500 male chicks. The following applies: Composition 250 ppm, Salinomycin 66 ppm, alone or combined. The text has this:
On Days 18, 28, and 35, three birds per pen were sacrificed and coccidial lesion scored for degree of E. acervulina, E. maxima and E. tenella infection (Examples 6 and 7). The system of Johnson and Reid (1970) wherein 0 is normal and 1, 2, 3, or 4 indicate increasing severity of infection were used for lesion scoring. In Example 8, three birds per pen were sacrificed on days […] and coccidial lesion scored for degree of E. acervulina, E. maxima and E. tenella infection. The system of Johnson and Reid (1970) wherein 0 is normal and 1, 2, 3, or 4 indicate increasing severity of infection were used for lesion scoring.
On Days 18 and 28 fresh fecal samples were collected from each pen (Examples 6 and 7). On Days 18 and 28, fresh fecal samples were collected from each pen (Example 8). These representative samples were tested to determine the degree of oocysts shedding/cycling. Oocysts per gram were determined for each sample.
In this example, the ability of exemplary compositions to improve bird performance under challenge conditions was determined. In some embodiments, an exemplary composition was administered alone and in other embodiments, it was administered in combination with Salinomycin. In some embodiments, the birds were not fed any additives (that is, neither the composition nor Salinomycin) and in other embodiments the birds were solely fed Salinomycin. The birds used in this example were exposed to ionophore tolerant coccidia in the litter of all pens, beginning from day of age. […] The results from this example further illustrate that the disclosed compositions and combinations are effective to better control coccidia that are partially resistant to ionophores.

For a further experiment, the system named is coccidia. In words: Example 4: compatibility of the composition with Salinomycin; feed conversion, weight gain, oocysts, coccidial challenge. The experiment is classed as in vivo, broilers. The following applies: between days 21 and 28; composition 250 ppm, Salinomycin 66 ppm. Here is the method: In this particular embodiment, the compatibility of the Yucca schidigera and Quillaja saponaria composition with Salinomycin was evaluated. The treatments included embodiments where no feed additive was provided (e.g., none of the composition added), where 250 ppm of the composition was provided, where 66 ppm of Salinomycin was provided, and embodiments where 250 ppm of the composition and 66 ppm of Salinomycin were provided in combination. The anticoccidial effects and immune potentiation of each test embodiment were evaluated and the results are provided graphically in FIGS. 20-26.
A challenge study was also conducted to evaluate the potential for immune potentiation. Similar to the challenge study described in Example 3, 5 birds were removed from each pen after 21 days. These birds were challenged with a three-species coccidial challenge and then placed in batter cages for seven days. On day 28, the birds were killed and lesion scored.

Experiment [2] deals with E. tenella. The experiment can be described thus: Example 5: birds infected with E. tenella field isolate; performance, lesion score, OPG. In kind it is in vivo. The text has this: In another test embodiment, the effects of lower amounts of NFP (e.g., 100 ppm, 125 ppm, and 150 ppm) on birds infected with E. tenella, a species of Eimeria that causes hemorrhagic cecal coccidiosis in poultry, particularly young poultry. Infected birds were infected with 100,000 oocysts of field isolate of E. tenella. The infected birds were subjected to the treatments described below in entries 2-6 of Table 4.

[3] abbreviates: 44 ppm, birds infected with 100,000 oocysts of E. tenella.
[4] abbreviates: 66 ppm, entry 7 of Table 4 (entries 2-6 infected).

In the case of `CC[C@@H](C(=O)[C@@H](C)[C@@H](O)[C@H](C)[C@@H]1O[C@@H]([C@@H](CC)C(=O)O)CC[C@@H]1C)[C@H]1O[C@]2(C=C[C@@H](O)[C@]3(CC[C@@](C)([C@H]4CC[C@](O)(CC)[C@H](C)O4)O3)O2)[C@H](C)C[C@@H]1C` [Salinomycin], in the experiment on E. tenella [1] (Day 18), the “Lesion Scores E.T.” value was 0.5b. For the same molecule, in the experiment on E. tenella [1] (Day 21), the “OPG E.T.” value stood at 5528a oocysts per gram. Besides, in the experiment on E. tenella [1] (Day 28), the “Lesion Scores E.T.” value is recorded as 0.1b and the “OPG E.T.” value turned out to be 3065ab oocysts per gram. Further, in the experiment with coccidia, the “susceptibility of broilers to coccidial challenge” value is recorded as “increased the susceptibility”. In addition, in the experiment on E. tenella [2] (setting [3]), the “Adj. Fd. Conv.” value was 1.929 ab, the “Avg. Wt. Gain” value is reported as 0.242 ab, the “Feed Consum.” value amounted to 2.787 a and the “Lesion Score” value is reported as 0.8 c. Also, the OPG in the experiment with E. tenella [2] (setting [3]) is 800 oocysts per gram of fecal material. For the same molecule, in the experiment on E. tenella [2] (setting [4]), the “Adj. Fd. Conv.” value came to 1.863 bc, the “Avg. Wt. Gain” value is 0.245 ab, the “Feed Consum.” value came out at 2.671 a and the “Lesion Score” value came out at 0.6 c. For the same molecule, the OPG in the experiment on E. tenella [2] (setting [4]) is 150 oocysts per gram of fecal material.
